For this assay, the target named is T1, Kv7.2 (Homo sapiens, UniProt O43526).
T1 construct: expressed in transfected cells
The assay can be described thus: Activation of Kv7.2 (in vitro assay, concentration response curve). It is filed as cell-based. The conditions noted are these: for Emax: Kv7.2 activation max %; for EC50: activation of Kv7.2. The procedure: The term “EC50” in this application is defined as: the agonistic effect of a compound can be determined by testing the compound in an in vitro assay as described herein, whereby the effect of the compound is measured across a range of compound concentrations. The resulting data is plotted as a concentration response curve, which typically follows a sigmoidal function, whereby the concentration of the compound is plotted on the x axis and the response (agonistic effect) is plotted on the y axis. The term “EC50” is the “half maximal effective concentration” and denotes the concentration of a particular compound required to obtain 50% of the maximum response (Emax) which is observed for that compound in the given in vitro assay.

Consider `O=C(NCc1ccnc(-n2cccn2)c1)N[C@@H]1C[C@H]2CC[C@@H]1C2` (racemic) [Example 7, 1-[(2-pyrazol-1-ylpyridin-4-yl)methyl]-3-[rac-(1R,2R,4S)-2-bicyclo[2.2.1]heptanyl]urea], for which the maximal effect (Emax) stood at 101% and the EC50 is 590 nM.

Compound `O=C(NCc1ccnc(OC(F)F)c1)N[C@@H]1C[C@H]2CC[C@@H]1C2` (racemic) [Example 12, 1-[[2-(difluoromethoxy)pyridin-4-yl]methyl]-3-[rac-(1R,2R,4S)-2-bicyclo[2.2.1]heptanyl]urea] yielded a maximal effect (Emax) of 81% and an EC50 of 90 nM.

In turn, `COc1cc(CNC(=O)N[C@@H]2C[C@H]3CC[C@@H]2C3)ccn1` (racemic) [Example 14, 1-[(2-methoxypyridin-4-yl)methyl]-3-[rac-(1R,2R,4S)-2-bicyclo[2.2.1]heptanyl]urea] gave an Emax of 86% and an EC50 of 1840 nM.

The compound `O=C(NCc1ccnc(-n2cnc(C(F)(F)F)c2)c1)N[C@H]1C[C@@H]2CC[C@H]1C2` (racemic) [Example 26, 1-[rac-(1R,2R,4S)-2-bicyclo[2.2.1]heptanyl]-3-[[2-[4-(trifluoromethyl)imidazol-1-yl]pyridin-4-yl]methyl]urea] showed an Emax of 65% and an EC50 of 380 nM.

For `O=C(NCc1ccnc(Br)c1)N[C@H]1C[C@@H]2CC[C@H]1C2` (racemic) [Example 27, 1-[(2-bromopyridin-4-yl)methyl]-3-[rac-(1R,2R,4S)-2-bicyclo[2.2.1]heptanyl]urea], the maximal effect (Emax) turned out to be 76% and the midpoint of the response, the EC50, lay at 2690 nM.

Regarding `O=C(NCc1ccnc(-c2cnco2)c1)N[C@H]1C[C@@H]2CC[C@H]1C2` (racemic) [Example 28, 1-[[2-(1,3-oxazol-5-yl)pyridin-4-yl]methyl]-3-[rac-(1R,2R,4S)-2-bicyclo[2.2.1]heptanyl]urea], the Emax is 76% and the half-maximal effective concentration (EC50) came out at 8280 nM.

With `CC(F)(F)c1cc(CNC(=O)N[C@H]2C[C@@H]3CC[C@H]2C3)ccn1` (racemic) [Example 33, 1-[[2-(1,1-difluoroethyl)pyridin-4-yl]methyl]-3-[rac-(1R,2R,4S)-2-bicyclo[2.2.1]heptanyl]urea], the maximal response (Emax) was 80% and a half-maximal response (EC50) required 260 nM.

The compound `N#Cc1cc(CNC(=O)N[C@H]2C[C@@H]3CC[C@H]2C3)ccn1` (racemic) [Example 34, 1-[(2-cyanopyridin-4-yl)methyl]-3-[rac-(1R,2R,4S)-2-bicyclo[2.2.1]heptanyl]urea] yielded a maximal effect (Emax) of 49% and an EC50 of 2770 nM.

As for `O=C(NCc1ccnc(C(F)F)c1)N[C@H]1C[C@@H]2CC[C@H]1C2` (racemic) [Example 35, 1-[[2-(difluoromethyl)pyridin-4-yl]methyl]-3-[rac-(1R,2R,4S)-2-bicyclo[2.2.1]heptanyl]urea], the maximal response (Emax) came to 67% and the concentration giving a half-maximal response (EC50) is 1140 nM.

Compound `O=C(NCc1ccnc(C(F)(F)F)c1)N[C@H]1C[C@@H]2CC[C@H]1C2` (racemic) [Example 36, 1-[rac-(1R,2R,4S)-2-bicyclo[2.2.1]heptanyl]-3-[[2-(trifluoromethyl)pyridin-4-yl]methyl]urea] gave an Emax of 64% and an EC50 of 540 nM.

The compound `O=C(NCc1ccnc(OC(F)F)c1)N[C@@H]1CC[C@H](C(F)(F)F)C1` (racemic) [Example 59, 1-[[2-(difluoromethoxy)pyridin-4-yl]methyl]-3-[rac-(1R,3S)-3-(trifluoromethyl)cyclopentyl]urea] had an Emax of 65% and a concentration giving a half-maximal response (EC50) of 110 nM.

`O=C(NCc1ccnc(OC(F)F)c1)NC1CCC2C1C2(F)F` (racemic) [Example 73, 1-[[2-(difluoromethoxy)pyridin-4-yl]methyl]-3-[rac-(1R,5R)-6,6-difluoro-2-bicyclo[3.1.0]hexanyl]urea] returned a maximum response (Emax) of 49% and an EC50 of 250 nM.

The compound `O=C(NCc1ccnc(OC(F)F)c1)NC1CC2C(C1)C2(F)F` (racemic) [Example 74, 1-[[2-(difluoromethoxy)pyridin-4-yl]methyl]-3-[rac-(1R,5S)-6,6-difluoro-3-bicyclo[3.1.0]hexanyl]urea] gave a maximum response (Emax) of 58% and a concentration for a half-maximal effect (EC50) of 170 nM.

Consider `O=C(NCc1ccnc(OCC(F)(F)F)c1)N[C@H]1CC[C@@H](C(F)(F)F)C1` (racemic) [Example 79, 1-[rac-(1R,3S)-3-(trifluoromethyl)cyclopentyl]-3-[[2-(2,2,2-trifluoroethoxy)pyridin-4-yl]methyl]urea], for which the Emax was 55% and the midpoint of the response, the EC50, lay at 100 nM.

`CC1(C)C[C@H](NC(=O)NCc2ccnc(OC(F)F)c2)[C@@H]1O` (racemic) [Example 81, 1-[[2-(difluoromethoxy)pyridin-4-yl]methyl]-3-[rac-(1R,2S)-2-hydroxy-3,3-dimethylcyclobutyl]urea] gave an Emax of 73% and a concentration for a half-maximal effect (EC50) of 1360 nM.

Consider `CC1(C)C[C@H](NC(=O)NCc2ccnc(-n3cnc(C(F)(F)F)c3)c2)[C@@H]1O` (racemic) [Example 99, 1-[rac-(1R,2S)-2-hydroxy-3,3-dimethylcyclobutyl]-3-[[2-[4-(trifluoromethyl)imidazol-1-yl]pyridin-4-yl]methyl]urea], for which the maximum response (Emax) was found to be 44% and the 50% effective concentration (EC50) came to 6510 nM.

`CC1(C)CC[C@H](O)[C@@H](NC(=O)NCc2ccnc(OC(F)F)c2)C1` (racemic) [Example 101, 1-[[2-(difluoromethoxy)pyridin-4-yl]methyl]-3-[rac-(1R,2R)-2-hydroxy-5,5-dimethylcyclohexyl]urea] came in with a maximal response (Emax) of 72% and a concentration for a half-maximal effect (EC50) of 1200 nM.

Turning to `O=C(NCc1ccnc(OC(F)F)c1)N[C@@H]1C[C@H]2CC[C@@H]1O2` (racemic) [Example 102, 1-[[2-(difluoromethoxy)pyridin-4-yl]methyl]-3-[rac-(1R,2S,4S)-7-oxabicyclo[2.2.1]heptan-2-yl]urea], the Emax came out at 71% and the concentration for a half-maximal effect (EC50) turned out to be 5860 nM.

`O=C(NCc1ccnc(OC(F)F)c1)N[C@H]1C[C@@H]2C[C@H]1[C@H](O)C2` (racemic) [Example 107, 1-[[2-(difluoromethoxy)pyridin-4-yl]methyl]-3-[rac-(1R,2S,4S,6R)-6-hydroxy-2-bicyclo[2.2.1]heptanyl]urea] came in with an Emax of 95% and an EC50 of 1700 nM.

In turn, `O=C(NCc1ccnc(OC(F)F)c1)N[C@H]1[C@@H](O)[C@H]2CCC[C@H]21` (racemic) [Example 111, 1-[[2-(difluoromethoxy)pyridin-4-yl]methyl]-3-[rac-(1R,5S,6S,7R)-7-hydroxy-6-bicyclo[3.2.0]heptanyl]urea] gave a maximal response (Emax) of 63% and a half-maximal effective concentration (EC50) of 2780 nM.

As for `O=C(NCc1ccnc(OC(F)F)c1)N[C@H]1C[C@H]2CCC[C@@]2(CO)C1` (racemic) [Example 112, 1-[[2-(difluoromethoxy)pyridin-4-yl]methyl]-3-[rac-(2R,3aS,6aS)-6a-(hydroxymethyl)-2,3,3a,4,5,6-hexahydro-1H-pentalen-2-yl]urea], the Emax was found to be 49% and it took 4910 nM to reach a half-maximal effect (EC50).

In turn, `O=C(NCc1ccnc(OC(F)F)c1)N[C@H]1CCC[C@H]1O` (racemic) [Example 118, 1-[[2-(difluoromethoxy)pyridin-4-yl]methyl]-3-[rac-(1R,2S)-2-hydroxycyclopentyl]urea] had an Emax of 63% and a concentration for a half-maximal effect (EC50) of 7870 nM.

As for `O=C(NCc1ccnc(OC(F)F)c1)NC[C@@]12CCC[C@@H]1CCO2` (racemic) [Example 120, 1-[[2-(difluoromethoxy)pyridin-4-yl]methyl]-3-[[rac-(3aR,6aR)-2,3,3a,4,5,6-hexahydrocyclopenta[b]furan-6a-yl]methyl]urea], the Emax was found to be 53% and the concentration for a half-maximal effect (EC50) was 3450 nM.

With `O=C(NCc1ccnc(OC(F)F)c1)N[C@@H]1CC[C@@H]1F` (racemic) [Example 123, 1-[[2-(difluoromethoxy)pyridin-4-yl]methyl]-3-[rac-(1R,2S)-2-fluorocyclobutyl]urea], the Emax was found to be 40% and the EC50 was found to be 4160 nM.

Compound `O=C(NCc1ccnc(OC(F)F)c1)N[C@@H]1CCC[C@H](C(F)(F)F)C1` (racemic) [Example 138, 1-[[2-(difluoromethoxy)pyridin-4-yl]methyl]-3-[rac-(1R,3S)-3-(trifluoromethyl)cyclohexyl]urea] had an Emax of 40% and an EC50 of 100 nM.

Turning to `O=C1CC2CCC(C1)C2NC(=O)NCc1ccnc(OC(F)F)c1` (racemic) [Example 139, 1-[[2-(difluoromethoxy)pyridin-4-yl]methyl]-3-[rac-(1R,5S)-3-oxo-8-bicyclo[3.2.1]octanyl]urea], the Emax is 61% and the half-maximal effective concentration (EC50) was determined as 5250 nM.

As for `C[C@]1(O)CCCC[C@@H]1NC(=O)NCc1ccnc(OC(F)F)c1` (racemic) [Example 148, 1-[[2-(difluoromethoxy)pyridin-4-yl]methyl]-3-[rac-(1R,2R)-2-hydroxy-2-methylcyclohexyl]urea], the Emax was 64% and the EC50 came to 5070 nM.

`O=C(NCc1ccnc(OC(F)F)c1)N[C@@H]1CCC(F)(F)C[C@H]1O` (racemic) [Example 154, 1-[[2-(difluoromethoxy)pyridin-4-yl]methyl]-3-[rac-(1R,2R)-4,4-difluoro-2-hydroxycyclohexyl]urea]: the Emax came to 60% and the midpoint of the response, the EC50, lay at 2130 nM.

For the compound `O=C(NCc1ccnc(OC(F)F)c1)NC1C[C@H]2C[C@@H]1CC2(F)F` (mixture of isomers) [Example 165, 1-[[2-(difluoromethoxy)pyridin-4-yl]methyl]-3-[rac-(1R,4R)-5,5-difluoro-2-bicyclo[2.2.1]heptanyl]urea], the Emax stood at 94% and a half-maximal response (EC50) required 250 nM.

For the origin of these results see patent US20250074901A1, “NOVEL HETEROARYL COMPOUNDS” (ICAGEN, LLC, priority 2021, published 2025).
